pIC50: −log10 of the molar value.

One may read the pIC50 as −log10 of the IC50, conventionally taken in molar units. A lower pIC50 goes with a high IC50.

One assay addresses BTK (Homo sapiens, UniProt Q06187). In words: In vitro kinase assay (biochemical), BTK. Particulars: for pIC50: in vitro kinase assay; for selectivity for BTK over BLK (BTK/BLK selectivity): ratio of BLK and BTK IC50.
The next assay has as its target BLK (Homo sapiens, UniProt P51451). In words: In vitro kinase assay, BLK. In kind it is biochemical.
The target in a further assay is HER2 (Homo sapiens, UniProt P04626). In words: In vitro kinase assay, HER2. In kind it is biochemical.
In a further assay the target is T1, ITK (Homo sapiens, UniProt Q08881).
T1 sequence (Q08881 1-620): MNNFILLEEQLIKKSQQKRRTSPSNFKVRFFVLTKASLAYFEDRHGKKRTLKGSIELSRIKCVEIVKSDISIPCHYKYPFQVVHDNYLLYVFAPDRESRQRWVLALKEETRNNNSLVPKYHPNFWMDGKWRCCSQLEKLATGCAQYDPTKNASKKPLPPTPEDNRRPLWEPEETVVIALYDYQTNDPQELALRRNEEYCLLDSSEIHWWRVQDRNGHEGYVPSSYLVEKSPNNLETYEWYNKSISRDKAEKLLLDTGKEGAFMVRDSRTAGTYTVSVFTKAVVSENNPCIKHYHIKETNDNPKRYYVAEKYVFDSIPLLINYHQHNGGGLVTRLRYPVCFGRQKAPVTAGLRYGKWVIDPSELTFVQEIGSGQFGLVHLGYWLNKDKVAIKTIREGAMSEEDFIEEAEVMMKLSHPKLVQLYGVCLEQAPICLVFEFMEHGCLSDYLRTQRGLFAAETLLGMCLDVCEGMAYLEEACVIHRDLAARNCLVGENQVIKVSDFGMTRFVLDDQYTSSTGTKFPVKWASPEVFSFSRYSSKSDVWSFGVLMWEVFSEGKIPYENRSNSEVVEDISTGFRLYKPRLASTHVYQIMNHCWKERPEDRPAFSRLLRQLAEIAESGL
Description: In vitro kinase assay, ITK. Type of assay: biochemical.

Sequence of HER2 (P04626 23-1255): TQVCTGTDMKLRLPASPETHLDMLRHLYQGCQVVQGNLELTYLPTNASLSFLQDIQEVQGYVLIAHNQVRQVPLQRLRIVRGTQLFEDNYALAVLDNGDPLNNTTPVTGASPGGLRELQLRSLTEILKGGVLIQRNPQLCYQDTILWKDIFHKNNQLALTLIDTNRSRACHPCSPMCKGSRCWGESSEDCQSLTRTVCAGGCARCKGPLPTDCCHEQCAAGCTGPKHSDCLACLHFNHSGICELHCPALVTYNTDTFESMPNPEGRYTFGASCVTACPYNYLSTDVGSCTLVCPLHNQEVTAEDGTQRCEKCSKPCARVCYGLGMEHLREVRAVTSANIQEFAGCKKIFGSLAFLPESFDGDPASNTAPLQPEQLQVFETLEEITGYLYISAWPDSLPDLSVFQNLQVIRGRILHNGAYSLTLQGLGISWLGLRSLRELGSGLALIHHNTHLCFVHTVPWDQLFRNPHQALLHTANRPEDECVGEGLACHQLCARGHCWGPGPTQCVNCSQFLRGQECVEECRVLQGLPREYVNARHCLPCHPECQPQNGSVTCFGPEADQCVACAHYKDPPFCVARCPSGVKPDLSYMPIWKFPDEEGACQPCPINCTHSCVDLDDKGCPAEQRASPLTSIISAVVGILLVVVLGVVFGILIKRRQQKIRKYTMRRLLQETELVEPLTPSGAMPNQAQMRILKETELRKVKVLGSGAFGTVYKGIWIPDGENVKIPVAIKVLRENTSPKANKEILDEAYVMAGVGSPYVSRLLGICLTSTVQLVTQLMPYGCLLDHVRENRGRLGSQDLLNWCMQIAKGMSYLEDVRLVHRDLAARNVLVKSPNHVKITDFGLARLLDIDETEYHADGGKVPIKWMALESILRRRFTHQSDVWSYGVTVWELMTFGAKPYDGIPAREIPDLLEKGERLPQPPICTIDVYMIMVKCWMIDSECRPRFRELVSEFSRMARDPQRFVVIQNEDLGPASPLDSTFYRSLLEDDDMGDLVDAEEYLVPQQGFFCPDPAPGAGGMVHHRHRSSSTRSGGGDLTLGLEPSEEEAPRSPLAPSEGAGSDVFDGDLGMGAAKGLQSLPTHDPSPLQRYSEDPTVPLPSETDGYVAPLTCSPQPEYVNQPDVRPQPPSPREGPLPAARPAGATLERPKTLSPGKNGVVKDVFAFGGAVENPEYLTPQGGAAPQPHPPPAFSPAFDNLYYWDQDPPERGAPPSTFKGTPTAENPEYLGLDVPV
Sequence of BTK (Q06187 whole entry): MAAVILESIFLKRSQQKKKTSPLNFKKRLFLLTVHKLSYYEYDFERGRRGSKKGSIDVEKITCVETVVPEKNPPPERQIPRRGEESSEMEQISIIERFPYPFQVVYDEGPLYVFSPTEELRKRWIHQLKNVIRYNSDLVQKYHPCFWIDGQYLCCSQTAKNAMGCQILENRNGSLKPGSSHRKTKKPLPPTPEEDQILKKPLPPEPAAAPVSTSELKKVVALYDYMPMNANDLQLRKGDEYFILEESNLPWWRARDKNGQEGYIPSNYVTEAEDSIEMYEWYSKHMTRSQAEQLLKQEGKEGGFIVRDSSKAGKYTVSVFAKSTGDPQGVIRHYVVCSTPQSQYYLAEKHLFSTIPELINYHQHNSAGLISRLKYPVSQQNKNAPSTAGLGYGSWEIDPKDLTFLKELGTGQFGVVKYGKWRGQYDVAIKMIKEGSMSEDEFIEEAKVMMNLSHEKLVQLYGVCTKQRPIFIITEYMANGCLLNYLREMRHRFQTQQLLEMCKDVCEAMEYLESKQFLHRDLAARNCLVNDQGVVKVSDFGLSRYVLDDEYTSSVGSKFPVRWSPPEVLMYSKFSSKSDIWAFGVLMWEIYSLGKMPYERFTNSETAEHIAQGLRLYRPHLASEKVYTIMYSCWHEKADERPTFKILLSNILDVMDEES
Sequence of BLK (P51451 whole entry): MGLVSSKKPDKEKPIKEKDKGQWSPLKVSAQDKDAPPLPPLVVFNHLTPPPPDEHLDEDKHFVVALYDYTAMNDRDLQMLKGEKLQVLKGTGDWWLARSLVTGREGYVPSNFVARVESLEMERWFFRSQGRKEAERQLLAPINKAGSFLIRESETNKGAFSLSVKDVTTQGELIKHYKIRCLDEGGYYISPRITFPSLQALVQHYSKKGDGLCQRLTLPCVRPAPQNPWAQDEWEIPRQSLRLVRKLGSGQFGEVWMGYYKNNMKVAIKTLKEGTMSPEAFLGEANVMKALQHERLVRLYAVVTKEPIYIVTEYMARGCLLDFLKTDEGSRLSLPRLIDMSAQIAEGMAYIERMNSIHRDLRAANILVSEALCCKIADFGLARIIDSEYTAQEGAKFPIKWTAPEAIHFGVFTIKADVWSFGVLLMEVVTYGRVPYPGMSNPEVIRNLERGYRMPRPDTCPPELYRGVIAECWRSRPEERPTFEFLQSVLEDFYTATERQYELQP

Regarding `C=CC(=O)N1CCC[C@@H](n2cc(-c3ccc(Oc4ccccc4)cc3)c3c(N)ncnc32)C1` [3.4], the values for the pIC50 on BTK and at BLK were 8.57 and 8.04, respectively.
Take `C=CC(=O)N1CCC[C@@H](n2cc(-c3ccc(Oc4ccccc4)cc3)c3c(N)ncnc32)C1` (racemic) [Rac]: the pIC50 at BTK was 9.33; at HER2, 6.35; against BLK it was 9.54.
Consider `C=CC(=O)N1CCC[C@@H](n2nc(-c3ccc(Oc4ccccc4)cc3C)c3c(N)ncnc32)C1` [3.7], for which the pIC50 was 8.26 on BTK and 8.08 on BLK.
Taken in the same sequence, the figures for `C=CC(=O)N1CCCC(n2nc(-c3c(C)cc(Oc4ccccc4)cc3C)c3c(N)ncnc32)C1` (stereo not shown) [3.8] were 7.43 and 6.76.
Take `C=CC(=O)N1CCC[C@H](n2cc(-c3ccc(Oc4ccccc4)cc3)c3c(N)ncnc32)C1` [3.5]: the values for the pIC50 at BTK and on BLK were 7.76 and 7.25, respectively.
In the case of `C=CC(=O)N1CCC[C@H](n2c(C)c(-c3ccc(Oc4ccccc4)cc3C)c3c(N)ncnc32)C1` (single isomer, unassigned) [(Sa)-3.2], the pIC50 against BTK is 5.41; on HER2, less than 5.00; against ITK, less than 5.00; against BLK, 5.76.
On to `C=CC(=O)N1CCCC(n2nc(-c3ccc(C(=O)Nc4ccccn4)cc3C)c3c(N)ncnc32)C1` (stereo not shown) [3.11], for which the results for the pIC50 at BTK and at BLK were 8.95 and 7.49, respectively. Moreover, on BTK, the “selectivity for BTK over BLK (BTK/BLK selectivity)” value turned out to be 30 ×.
Consider `C=CC(=O)N1CCCC(n2c(C)c(-c3ccc(C(=O)Nc4ccccn4)cc3C)c3c(N)ncnc32)C1` (single isomer, unassigned) [(Ra)-3.10], for which the pIC50 is 7.62 against BTK and 6.89 against BLK.
Take `C=CC(=O)N1CCC[C@@H](n2c(C)c(-c3ccc(Oc4ccccc4)cc3C)c3c(N)ncnc32)C1` (single isomer, unassigned) [(Ra)-3.1]: the pIC50 is 5.48 at BTK, less than 5.00 against HER2, less than 5.00 against ITK and 5.74 at BLK.
In the case of `C=CC(=O)N1CCC[C@@H](n2c(C)c(-c3ccc(Oc4ccccc4)cc3C)c3c(N)ncnc32)C1` (single isomer, unassigned) [(Sa)-3.1], the pIC50 on BTK is less than 5.00; against HER2, less than 5.00; against ITK it was less than 5.00; on BLK, 5.00.
On to `C=CC(=O)N1CCC[C@H](n2c(C)c(-c3ccc(Oc4ccccc4)cc3C)c3c(N)ncnc32)C1` (single isomer, unassigned) [(Ra)-3.2], for which the “improvement in affinity/potency towards BTK over the diastereomer (Ra, R) / (Ra)-3.1” value at BTK (fold, BTK IC50 425 nM vs 3307 nM) worked out at 10 ×. Further, the pIC50 on BTK was 6.37; against HER2, less than 5.00; against ITK it was less than 5.00; against BLK it was 6.73.
Consider `C=CC(=O)N1CCC[C@@H](n2cc(-c3ccc(Oc4ccccc4)cc3C)c3c(N)ncnc32)C1` [3.6], for which, at BTK, the pIC50 was 8.19 and the “selectivity for BTK over BLK (BTK/BLK selectivity)” value is recorded as “about 2 ×”. On BLK, this compound gave a pIC50 of 7.85.
On to `C=CC(=O)N1CCC[C@H](n2c(C)c(-c3ccc(Oc4ccccc4)cc3)c3c(N)ncnc32)C1` [3.3], for which the pIC50 against BTK and against BLK was 6.35 each time.
Turning to `C=CC(=O)N1CCCC(n2c(C)c(-c3ccc(C(=O)Nc4ccccn4)cc3C)c3c(N)ncnc32)C1` (single isomer, unassigned) [(Sa)-3.10], the negative logarithm of the IC50 (pIC50) was 7.66 against BTK and 7.04 at BLK.
